Broadly, the EC50 is the concentration needed to bring the measured effect to its halfway point.

In the experiment the target is recombinant IL4I1 (Homo sapiens (Human), UniProt Q96RQ9). Description: IL4I1 Enzymatic Assay (Amplex Red/HRP coupled fluorescence detection of H2O2). Format: biochemical. As to conditions: 240 min; recombinant IL4I1, four-hour pre-incubation with compound. As for the experimental part: Interleukin 4 inducible protein 1 (IL4I1) is an L-amino oxidase that catalyzes the oxidation of aromatic residues (Phe, Trp and Tyr): L-amino acid+H2O+O2→2-oxo acid+NH3+H2O2. Equal molar of H2O2 and the corresponding alpha-ketoacid are produced when IL4I1 and substrate are added. In this assay, the hydrogen peroxide generated by IL4I1 is then detected through a coupled reaction with Amplex® Red (10-acetyl-3,7-dihydroxyphenoxazine) and horseradish peroxidase (HRP) to produce resorufin product that could be detected in the form of fluorescence signals. The assessment of the inhibitory effect of small molecules (EC50) on IL4I1 is measured by the effectiveness of the compounds to inhibit the production of H2O2.
Chain of recombinant IL4I1 (Q96RQ9 22-567): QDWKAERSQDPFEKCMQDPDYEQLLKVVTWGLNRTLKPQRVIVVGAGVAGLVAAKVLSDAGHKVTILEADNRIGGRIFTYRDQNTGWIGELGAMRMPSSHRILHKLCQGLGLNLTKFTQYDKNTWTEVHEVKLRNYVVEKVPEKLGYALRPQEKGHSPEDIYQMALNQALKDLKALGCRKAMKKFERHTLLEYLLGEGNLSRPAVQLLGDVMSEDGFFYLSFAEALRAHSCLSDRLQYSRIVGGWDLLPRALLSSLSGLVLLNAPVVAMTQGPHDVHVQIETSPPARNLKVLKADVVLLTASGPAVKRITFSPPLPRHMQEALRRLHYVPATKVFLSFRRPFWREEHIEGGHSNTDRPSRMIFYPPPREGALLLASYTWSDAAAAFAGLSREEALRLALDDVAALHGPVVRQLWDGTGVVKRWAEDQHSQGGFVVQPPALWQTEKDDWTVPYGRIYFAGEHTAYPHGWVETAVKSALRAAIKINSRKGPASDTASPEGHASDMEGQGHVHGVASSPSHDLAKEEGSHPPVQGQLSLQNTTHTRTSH
Using this assay, the potency (EC50) of each compound was determined from a ten-point (1:3 serial dilution) titration curve using the following outlined procedure. To each well of a black flat-bottom Greiner (Cat #781076) 384 well-plate, 25 nL of compound (0.1% DMSO in final assay volume of 25 μL) was dispensed, followed by the addition of 12.5 μL of 1× assay buffer (50 mM Hepes 7.0 and 0.005% Tween20 (Sigma, Cat #P8341; low peroxide grade)) containing 2 nM of recombinant IL4I1 (R&D Systems, Cat #5684-AO-020). Plates were placed in an ambient temperature humidified chamber for a four-hour pre-incubation with compound. Subsequently, each reaction was initiated by the addition of 12.5 μL 1× assay buffer containing 2 mM of each aromatic amino acids (Phe/Tyr/Trp), 0.1 mM Amplex Red and 2 U/mL of HRP. The final reaction in each well of 25 μL consisted of 1 nM of IL4I1, 1 mM of each residues (Phe, Tyr and Trp), 0.05 mM Amplex Red and 1 U/mL of HRP. It should be noted that the concentrations of Amplex Red and HRP used here were in excess such that the conversion of H2O2 to resorufin product occurred instantaneously and was non-rate limiting. Reactions were allowed to proceed for 120 minutes followed by fluorescence readout on a Spectramax with the following set parameters: 544 nm excitation/590 nm emission, 570 nm cutoff (EnVision is an alternative reader). Dose-response curves were generated by plotting percent effect (% product conversion; Y-axis) vs. Log10 compound concentrations (X-axis). EC50 values were calculated using a non-linear regression, four-parameters sigmoidal dose-response model and are shown in Potency Table 1.
For `O=c1c(=O)n([C@H]2C[C@H]3C[C@H]3C2)ccn1Cc1nnc(-c2cccc(F)c2)s1` [Example 43, 1-((cis)-bicyclo[3.1.0]hexan-3-yl)-4-((5-(3-fluorophenyl)-1,3,4-thiadiazol-2-yl)methyl)-1,4-dihydropyrazine-2,3-dione], the EC50 was found to be 3 nM.
The figure for `O=C1C(=O)N([C@H]2C[C@H]3C[C@H]3C2)CCN1Cc1nnc(-c2ccccc2F)s1` [Example 44, 1-((cis)-bicyclo[3.1.0]hexan-3-yl)-4-((5-(2-fluorophenyl)-1,3,4-thiadiazol-2-yl)methyl)piperazine-2,3-dione] is 7 nM.
On to `O=c1c(=O)n([C@H]2C[C@H]3C[C@H]3C2)ccn1Cc1nnc(-c2ccccc2F)s1` [Example 45, 1-((cis)-bicyclo[3.1.0]hexan-3-yl)-4-((5-(2-fluorophenyl)-1,3,4-thiadiazol-2-yl)methyl)-1,4-dihydropyrazine-2,3-dione], for which the EC50 was 5 nM.
As to `O=C1C(=O)N(C2CCCC2)CCN1Cc1cnc(-c2ccccc2F)cn1` [Example 46, 1-cyclopentyl-4-((5-(2-fluorophenyl)pyrazin-2-yl)methyl)piperazine-2,3-dione], the EC50 came out at 13 nM.
The figure for `O=c1c(=O)n([C@H]2C[C@H](c3ccccc3)C2)ccn1Cc1nnc(-c2ccccc2)s1` [Example 47, 1-((5-phenyl-1,3,4-thiadiazol-2-yl)methyl)-4-((trans)-3-phenylcyclobutyl)-1,4-dihydropyrazine-2,3-dione] is 3 nM; for `O=c1c(=O)n([C@H]2C[C@@H](c3ccccc3)C2)ccn1Cc1nnc(-c2ccccc2)s1` [Example 48, 1-((5-phenyl-1,3,4-thiadiazol-2-yl)methyl)-4-((cis)-3-phenylcyclobutyl)-1,4-dihydropyrazine-2,3-dione] it is 2 nM.
The same measure for `O=c1c(=O)n(C2CCC2)ccn1Cc1ccc(-c2ccccc2F)nn1` [Example 49, 1-cyclobutyl-4-((6-(2-fluorophenyl)pyridazin-3-yl)methyl)-1,4-dihydropyrazine-2,3-dione]: 3 nM; for `O=c1c(=O)n([C@H]2C[C@H]3C[C@H]3C2)ccn1Cc1ccc(-c2ccccc2F)nn1` [Example 50, 1-((cis)-bicyclo[3.1.0]hexan-3-yl)-4-((6-(2-fluorophenyl)pyridazin-3-yl)methyl)-1,4-dihydropyrazine-2,3-dione]: 4 nM; for `O=C1C(=O)N([C@H]2C[C@H]3C[C@H]3C2)CCN1Cc1ccc(-c2ccccc2F)nn1` [Example 51, 1-((1R,3r,5S)-bicyclo[3.1.0]hexan-3-yl)-4-((6-(2-fluorophenyl)pyridazin-3-yl)methyl)piperazine-2,3-dione]: 8 nM.
Turning to `O=c1c(=O)n(C2CCCC2)ccn1Cc1ccc(-c2ccccc2)nn1` [Example 52, 1-cyclopentyl-4-((6-phenylpyridazin-3-yl)methyl)-1,4-dihydropyrazine-2,3-dione], the EC50 was determined as 4 nM.
For the compound `O=c1c(=O)n(C2CCCC2)ccn1Cc1ccc(-c2ccccc2F)nn1` [Example 53, 1-cyclopentyl-4-((6-(2-fluorophenyl)pyridazin-3-yl)methyl)-1,4-dihydropyrazine-2,3-dione], the EC50 turned out to be 7 nM.
The figure for `O=c1c(=O)n(C2CCC2)ccn1Cc1cc(-c2cccc(F)c2)on1` [Example 54, 1-cyclobutyl-4-((5-(3-fluorophenyl)isoxazol-3-yl)methyl)-1,4-dihydropyrazine-2,3-dione] is 2 nM.
`O=c1c(=O)n(C2CCC2)ccn1Cc1cc(-c2ccc(F)cc2)on1` [Example 55, 1-cyclobutyl-4-((5-(4-fluorophenyl)isoxazol-3-yl)methyl)-1,4-dihydropyrazine-2,3-dione]: the concentration giving a half-maximal response (EC50) was found to be 1 nM.
Consider `O=c1c(=O)n(C2CCC2)ccn1Cc1cc(-c2ccccc2)on1` [Example 56, 1-cyclobutyl-4-((5-phenylisoxazol-3-yl)methyl)-1,4-dihydropyrazine-2,3-dione], for which the EC50 is 1 nM.

The values are drawn from patent publication US20240246937A1 (MERCK SHARP & DOHME LLC, priority 2021, published 2024).
